ChEMBL document CHEMBL1139489, “Design and NMR characterization of active analogues of compstatin containing non-natural amino acids” (J Med Chem, 2005)

Target: Complement C3 (Homo sapiens, UniProt P01024)
Assay: Inhibitory concentration for human complement component C3 activation

Complement C3, sequence (P01024 23-667 limits assumed): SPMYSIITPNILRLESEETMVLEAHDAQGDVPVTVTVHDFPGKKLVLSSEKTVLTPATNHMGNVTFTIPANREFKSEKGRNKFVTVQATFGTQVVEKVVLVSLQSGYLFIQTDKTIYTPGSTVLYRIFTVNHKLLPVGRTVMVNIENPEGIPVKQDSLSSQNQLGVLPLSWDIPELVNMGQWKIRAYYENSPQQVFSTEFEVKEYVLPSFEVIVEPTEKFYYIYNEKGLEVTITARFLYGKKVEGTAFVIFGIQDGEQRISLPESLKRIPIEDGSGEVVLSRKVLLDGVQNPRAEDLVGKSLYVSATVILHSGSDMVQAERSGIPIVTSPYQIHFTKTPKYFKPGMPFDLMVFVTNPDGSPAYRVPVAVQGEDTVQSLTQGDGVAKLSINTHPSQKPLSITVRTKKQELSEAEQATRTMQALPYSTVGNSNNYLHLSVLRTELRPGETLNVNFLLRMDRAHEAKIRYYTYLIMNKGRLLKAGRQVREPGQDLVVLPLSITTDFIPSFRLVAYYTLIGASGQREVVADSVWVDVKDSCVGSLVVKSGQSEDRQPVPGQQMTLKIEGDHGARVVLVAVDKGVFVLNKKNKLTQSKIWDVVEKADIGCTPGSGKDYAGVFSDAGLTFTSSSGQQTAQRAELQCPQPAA
Complement C3, sequence (P01024 672-1663 limits assumed): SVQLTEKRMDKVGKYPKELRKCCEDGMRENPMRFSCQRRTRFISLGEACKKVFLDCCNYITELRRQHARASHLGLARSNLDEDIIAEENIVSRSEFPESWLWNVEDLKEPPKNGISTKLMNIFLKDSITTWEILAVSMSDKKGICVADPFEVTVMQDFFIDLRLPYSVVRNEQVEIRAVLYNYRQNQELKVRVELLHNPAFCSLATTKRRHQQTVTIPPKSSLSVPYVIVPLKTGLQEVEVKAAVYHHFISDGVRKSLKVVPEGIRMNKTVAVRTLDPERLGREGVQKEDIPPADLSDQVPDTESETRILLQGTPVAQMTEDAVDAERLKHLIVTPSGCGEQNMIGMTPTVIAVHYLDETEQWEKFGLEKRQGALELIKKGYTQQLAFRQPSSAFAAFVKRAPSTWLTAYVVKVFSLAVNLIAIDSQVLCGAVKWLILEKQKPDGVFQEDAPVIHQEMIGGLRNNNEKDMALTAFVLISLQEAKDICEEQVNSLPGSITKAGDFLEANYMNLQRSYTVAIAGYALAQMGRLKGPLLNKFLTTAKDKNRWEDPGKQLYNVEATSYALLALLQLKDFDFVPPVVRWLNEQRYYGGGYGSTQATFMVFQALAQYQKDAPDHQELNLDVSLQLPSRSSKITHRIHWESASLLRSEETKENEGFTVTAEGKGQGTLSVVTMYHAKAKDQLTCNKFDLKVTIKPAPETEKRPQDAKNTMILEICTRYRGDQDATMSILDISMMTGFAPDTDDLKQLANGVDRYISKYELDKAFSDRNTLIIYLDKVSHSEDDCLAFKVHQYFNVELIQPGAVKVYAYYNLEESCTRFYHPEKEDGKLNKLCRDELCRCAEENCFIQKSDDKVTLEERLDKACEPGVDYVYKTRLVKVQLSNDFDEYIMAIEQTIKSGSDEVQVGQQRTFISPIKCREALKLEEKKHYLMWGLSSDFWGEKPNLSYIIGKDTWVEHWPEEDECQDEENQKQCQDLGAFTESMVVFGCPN

Row | SMILES | IC50 [µM]
1 | CC[C@H](C)[C@H](NC(C)=O)C(=O)N[C@H]1CSSC[C@@H](C(=O)N[C@H](C(N)=O)[C@@H](C)O)NC(=O)[C@H](CCCN=C(N)N)NC(=O)[C@H](Cc2c[nH]cn2)NC(=O)[C@H](Cc2c[nH]cn2)NC(=O)CNC(=O)[C@H](Cc2c[nH]c3ccccc23)NC(=O)[C@H](CC(=O)O)NC(=O)[C@H](CCC(N)=O)NC(=O)[C@H](Cc2ccccc2)NC(=O)[C@H](C(C)C)NC1=O | 10.2
2 | CC[C@H](C)[C@H](NC(=O)[C@@H]1CSSC[C@H](NC(=O)[C@@H](NC(C)=O)[C@@H](C)CC)C(=O)N[C@@H](C(C)C)C(=O)N[C@@H](Cc2ccc(OP(=O)(O)O)cc2)C(=O)N[C@@H](CCC(N)=O)C(=O)N[C@@H](CC(=O)O)C(=O)N[C@@H](Cc2c[nH]c3ccccc23)C(=O)NCC(=O)N[C@@H](C)C(=O)N[C@@H](Cc2c[nH]cn2)C(=O)N[C@@H](CCCN=C(N)N)C(=O)N1)C(N)=O | 9.6
3 | CC[C@H](C)[C@H](NC(C)=O)C(=O)N[C@H]1CSSC[C@@H](C(=O)N[C@H](C(N)=O)[C@@H](C)O)NC(=O)[C@H](CCCN=C(N)N)NC(=O)[C@H](Cc2c[nH]cn2)NC(=O)[C@H](C)NC(=O)CNC(=O)[C@H](Cc2c[nH]c3ccccc23)NC(=O)[C@H](CC(=O)O)NC(=O)[C@H](CCC(N)=O)NC(=O)[C@H](Cc2ccc(O)cc2)NC(=O)[C@H](C(C)C)NC1=O | 3.8
4 | CC[C@H](C)[C@H](NC(C)=O)C(=O)N[C@H]1CSSC[C@@H](C(=O)N[C@H](C(N)=O)[C@@H](C)O)NC(=O)[C@H](CCCNC(=N)N)NC(=O)[C@H](Cc2cnc[nH]2)NC(=O)[C@H](C)NC(=O)CNC(=O)[C@H](Cc2c[nH]c3ccccc23)NC(=O)[C@H](CC(=O)O)NC(=O)[C@H](CCC(N)=O)NC(=O)[C@H](C(C)C)NC(=O)[C@H](C(C)C)NC1=O | 12.4
5 | CC[C@H](C)[C@H](NC(C)=O)C(=O)N[C@H]1CSSC[C@@H](C(=O)N[C@H](C(N)=O)[C@@H](C)O)NC(=O)[C@H](CCCNC(=N)N)NC(=O)[C@H](Cc2c[nH]cn2)NC(=O)[C@H](Cc2c[nH]cn2)NC(=O)CNC(=O)[C@H](Cc2c[nH]c3ccccc23)NC(=O)[C@H](CC(=O)O)NC(=O)[C@H](CCC(N)=O)NC(=O)[C@H](C(C)C)NC(=O)[C@H](C(C)C)NC1=O | 32
6 | CC[C@H](C)[C@H](NC(=O)[C@@H]1CSSC[C@H](NC(=O)[C@@H](NC(C)=O)[C@@H](C)CC)C(=O)N[C@@H](C(C)C)C(=O)N[C@H](Cc2c[nH]c3ccccc23)C(=O)N[C@@H](CCC(N)=O)C(=O)N[C@@H](CC(=O)O)C(=O)N[C@@H](Cc2c[nH]c3ccccc23)C(=O)NCC(=O)N[C@@H](C)C(=O)N[C@@H](Cc2c[nH]cn2)C(=O)N[C@@H](CCCN=C(N)N)C(=O)N1)C(N)=O | > 1000
7 | CC[C@H](C)[C@H](NC(C)=O)C(=O)N[C@H]1CSSC[C@@H](C(N)=O)NC(=O)[C@H](CCCN=C(N)N)NC(=O)[C@H](Cc2c[nH]cn2)NC(=O)[C@H](Cc2c[nH]cn2)NC(=O)CNC(=O)[C@H](Cc2c[nH]c3ccccc23)NC(=O)[C@H](CC(=O)O)NC(=O)[C@@H](CCC(N)=O)NC(=O)[C@H](C(C)C)NC(=O)[C@H](C(C)C)NC1=O | > 1000
8 | CC[C@H](C)[C@H](NC(C)=O)C(=O)N[C@H]1CSSC[C@@H](C(=O)N[C@H](C(N)=O)[C@@H](C)O)NC(=O)[C@H](CCCNC(=N)N)NC(=O)[C@H](Cc2cnc[nH]2)NC(=O)[C@H](Cc2cnc[nH]2)NC(=O)CNC(=O)[C@H](Cc2c[nH]c3ccccc23)NC(=O)[C@H](CC(=O)O)NC(=O)[C@H](CCC(N)=O)NC(=O)[C@H]([C@@H](C)O)NC(=O)[C@H](C(C)C)NC1=O | 68.3
9 | CC[C@H](C)[C@H](NC(C)=O)C(=O)N[C@H]1CSSC[C@@H](C(=O)N[C@H](C(N)=O)[C@@H](C)O)NC(=O)[C@H](CCCN=C(N)N)NC(=O)[C@H](Cc2c[nH]cn2)NC(=O)[C@H](Cc2c[nH]cn2)NC(=O)CNC(=O)[C@H](Cc2c[nH]c3ccccc23)NC(=O)[C@H](CC(=O)O)NC(=O)[C@H](CCC(N)=O)NC(=O)[C@H](CO)NC(=O)[C@H](C(C)C)NC1=O | 50.9
10 | CC[C@H](C)[C@H](NC(C)=O)C(=O)N[C@H]1CSSC[C@@H](C(=O)N[C@H](C(N)=O)[C@@H](C)O)NC(=O)[C@H](CCCNC(=N)N)NC(=O)[C@H](Cc2cnc[nH]2)NC(=O)[C@H](Cc2cnc[nH]2)NC(=O)CNC(=O)[C@H](Cc2c[nH]c3ccccc23)NC(=O)[C@H](CC(=O)O)NC(=O)[C@H](CCC(N)=O)NC(=O)[C@H](Cc2cnc[nH]2)NC(=O)[C@H](C(C)C)NC1=O | 10.5
11 | CC[C@H](C)[C@H](NC(C)=O)C(=O)N[C@H]1CSSC[C@@H](C(=O)N[C@H](C(=O)O)[C@@H](C)O)NC(=O)[C@H](CCCN=C(N)N)NC(=O)[C@H](Cc2c[nH]cn2)NC(=O)[C@H](C)NC(=O)CNC(=O)[C@H](Cc2c[nH]c3ccccc23)NC(=O)[C@H](CC(=O)O)NC(=O)[C@H](CCC(N)=O)NC(=O)[C@H](CC2CNc3ccccc32)NC(=O)[C@H](C(C)C)NC1=O (some centres undefined) | 10.2
12 | CC[C@H](C)[C@H](NC(C)=O)C(=O)N[C@H]1CSSC[C@@H](C(=O)N[C@H](C(=O)O)[C@@H](C)O)NC(=O)[C@H](CCCN=C(N)N)NC(=O)[C@H](Cc2c[nH]cn2)NC(=O)[C@H](C)NC(=O)CNC(=O)[C@H](Cc2c[nH]c3ccccc23)NC(=O)[C@H](CC(=O)O)NC(=O)[C@H](CCC(N)=O)NC(=O)[C@H](CC2CCCCC2)NC(=O)[C@H](C(C)C)NC1=O | 47.8
13 | CC[C@H](C)[C@H](NC(=O)[C@@H]1CSSC[C@H](NC(=O)[C@@H](NC(C)=O)[C@@H](C)CC)C(=O)N[C@@H](C(C)C)C(=O)N[C@H](Cc2ccc(O)cc2)C(=O)N[C@@H](CCC(N)=O)C(=O)N[C@@H](CC(=O)O)C(=O)N[C@@H](Cc2c[nH]c3ccccc23)C(=O)NCC(=O)N[C@@H](C)C(=O)N[C@@H](Cc2c[nH]cn2)C(=O)N[C@@H](CCCN=C(N)N)C(=O)N1)C(N)=O | > 1000

Stronger by IC50, values ahead:

Row | IC50 [µM] | SMILES
14 | 1.1 | CC[C@H](C)[C@H](NC(C)=O)C(=O)N[C@H]1CSSC[C@@H](C(=O)N[C@H](C(=O)O)[C@@H](C)O)NC(=O)[C@H](CCCN=C(N)N)NC(=O)[C@H](Cc2c[nH]cn2)NC(=O)[C@H](C)NC(=O)CNC(=O)[C@H](Cc2c[nH]c3ccccc23)NC(=O)[C@H](CC(=O)O)NC(=O)[C@H](CCC(N)=O)NC(=O)[C@H](Cc2ccc(C(=O)c3ccccc3)cc2)NC(=O)[C@H](C(C)C)NC1=O
15 | 1.8 | CC[C@H](C)[C@H](NC(C)=O)C(=O)N[C@H]1CSSC[C@@H](C(=O)N[C@H](C(=O)O)[C@@H](C)O)NC(=O)[C@H](CCCN=C(N)N)NC(=O)[C@H](Cc2c[nH]cn2)NC(=O)[C@H](C)NC(=O)CNC(=O)[C@H](Cc2c[nH]c3ccccc23)NC(=O)[C@H](CC(=O)O)NC(=O)[C@H](CCC(N)=O)NC(=O)[C@H](Cc2cccc3ccccc23)NC(=O)[C@H](C(C)C)NC1=O
16 | 0.8 | CC[C@H](C)[C@H](NC(C)=O)C(=O)N[C@H]1CSSC[C@@H](C(=O)N[C@H](C(=O)O)[C@@H](C)O)NC(=O)[C@H](CCCN=C(N)N)NC(=O)[C@H](Cc2c[nH]cn2)NC(=O)[C@H](C)NC(=O)CNC(=O)[C@H](Cc2c[nH]c3ccccc23)NC(=O)[C@H](CC(=O)O)NC(=O)[C@H](CCC(N)=O)NC(=O)[C@H](Cc2csc3ccccc23)NC(=O)[C@H](C(C)C)NC1=O
17 | 2.2 | CC[C@H](C)[C@H](NC(C)=O)C(=O)N[C@H]1CSSC[C@@H](C(=O)N[C@H](C(N)=O)[C@@H](C)O)NC(=O)[C@H](CCCNC(=N)N)NC(=O)[C@H](Cc2cnc[nH]2)NC(=O)[C@H](Cc2cnc[nH]2)NC(=O)CNC(=O)[C@H](Cc2c[nH]c3ccccc23)NC(=O)[C@H](CC(=O)O)NC(=O)[C@H](CCC(N)=O)NC(=O)[C@H](Cc2c[nH]c3ccccc23)NC(=O)[C@H](C(C)C)NC1=O
18 | 3.1 | CC[C@H](C)[C@H](NC(C)=O)C(=O)N[C@H]1CSSC[C@@H](C(=O)N[C@H](C(N)=O)[C@@H](C)O)NC(=O)[C@H](CCCNC(=N)N)NC(=O)[C@H](Cc2cnc[nH]2)NC(=O)[C@H](Cc2c[nH]c3ccccc23)NC(=O)CNC(=O)[C@H](Cc2c[nH]c3ccccc23)NC(=O)[C@H](CC(=O)O)NC(=O)[C@H](CCC(N)=O)NC(=O)[C@H](Cc2c[nH]c3ccccc23)NC(=O)[C@H](C(C)C)NC1=O
19 | 0.5 | CC[C@H](C)[C@H](NC(C)=O)C(=O)N[C@H]1CSSC[C@@H](C(=O)N[C@H](C(N)=O)[C@@H](C)O)NC(=O)[C@H](CCCNC(=N)N)NC(=O)[C@H](Cc2c[nH]cn2)NC(=O)[C@H](C)NC(=O)CNC(=O)[C@H](Cc2c[nH]c3ccccc23)NC(=O)[C@H](CC(=O)O)NC(=O)[C@H](CCC(N)=O)NC(=O)[C@H](Cc2ccc3ccccc3c2)NC(=O)[C@H](C(C)C)NC1=O
20 | 0.6 | CC[C@H](C)[C@H](NC(C)=O)C(=O)N[C@H]1CSSC[C@@H](C(=O)N[C@H](C(N)=O)[C@@H](C)O)NC(=O)[C@H](CCCNC(=N)N)NC(=O)[C@H](Cc2cnc[nH]2)NC(=O)[C@H](C)NC(=O)CNC(=O)[C@H](Cc2c[nH]c3ccccc23)NC(=O)[C@H](CC(=O)O)NC(=O)[C@H](CCC(N)=O)NC(=O)[C@H](Cc2ccc(C(=O)c3ccccc3)cc2)NC(=O)[C@H](C(C)C)NC1=O
21 | 1.4 | CC[C@H](C)[C@H](NC(C)=O)C(=O)N[C@H]1CSSC[C@@H](C(=O)N[C@H](C(=O)O)[C@@H](C)O)NC(=O)[C@H](CCCNC(=N)N)NC(=O)[C@H](Cc2cnc[nH]2)NC(=O)[C@H](C)NC(=O)CNC(=O)[C@H](Cc2c[nH]c3ccccc23)NC(=O)[C@H](CC(=O)O)NC(=O)[C@H](CCC(N)=O)NC(=O)[C@H](Cc2ccc3ccccc3c2)NC(=O)[C@H](C(C)C)NC1=O
22 | 1.4 | CC[C@H](C)[C@H](NC(C)=O)C(=O)N[C@H]1CSSC[C@@H](C(=O)N[C@H](C(N)=O)[C@@H](C)O)NC(=O)[C@H](CCCN=C(N)N)NC(=O)[C@H](Cc2c[nH]cn2)NC(=O)[C@H](C)NC(=O)CNC(=O)[C@H](Cc2c[nH]c3ccccc23)NC(=O)[C@H](CC(=O)O)NC(=O)[C@H](CCC(N)=O)NC(=O)[C@H](C2Cc3ccccc3C2)NC(=O)[C@H](C(C)C)NC1=O
23 | 0.8 | CC[C@H](C)[C@H](NC(C)=O)C(=O)N[C@H]1CSSC[C@@H](C(=O)N[C@H](C(N)=O)[C@@H](C)O)NC(=O)[C@H](CCCN=C(N)N)NC(=O)[C@H](Cc2c[nH]cn2)NC(=O)[C@H](C)NC(=O)CNC(=O)[C@H](Cc2c[nH]c3ccccc23)NC(=O)[C@H](CC(=O)O)NC(=O)[C@H](CCC(N)=O)NC(=O)[C@H](Cc2csc3ccccc23)NC(=O)[C@H](C(C)C)NC1=O
24 | 1.5 | CC[C@H](C)[C@H](NC(C)=O)C(=O)N[C@H]1CSSC[C@@H](C(=O)N[C@H](C(=O)O)[C@@H](C)O)NC(=O)[C@H](CCCNC(=N)N)NC(=O)[C@H](Cc2cnc[nH]2)NC(=O)[C@H](C)NC(=O)CNC(=O)[C@H](Cc2c[nH]c3ccccc23)NC(=O)[C@H](CC(=O)O)NC(=O)[C@H](CCC(N)=O)NC(=O)[C@H](C2Cc3ccccc3C2)NC(=O)[C@H](C(C)C)NC1=O
